Solubility (mole fraction) data for three compounds are collected here from BigSolDB 2.1.

The conditions of this series: in n-hexane.

Usually solubility (mole fraction) stands for solubility expressed as the solute's share of all molecules. As to `Cc1ccc(N=C2[Se]CC3CCCN2C3)cc1Cl` (stereo not given), the solubility (mole fraction) came to 0.000536 (293.15 K); 0.000551 (298.15 K); 0.000567 (303.15 K); 0.000581 (308.15 K); 0.000595 (313.15 K).

Compound `Fc1ccc(N=C2[Se]CC3CCCN2C3)cc1` (stereo not given) came in with a solubility (mole fraction) (293.15 K) of 0.00115; a solubility (mole fraction) (298.15 K) of 0.00121; a solubility (mole fraction) (303.15 K) of 0.00128; a solubility (mole fraction) (308.15 K) of 0.00134; a solubility (mole fraction) (313.15 K) of 0.00143.

For the compound `CC(C)c1ccc(N=C2[Se]CC3CCCN2C3)cc1` (stereo not given), the solubility (mole fraction) (293.15 K) came to 0.000481; the solubility (mole fraction) (298.15 K) came to 0.00056; the solubility (mole fraction) (303.15 K) was 0.000643; the solubility (mole fraction) (308.15 K) turned out to be 0.000725; the solubility (mole fraction) (313.15 K) was determined as 0.000819.
